≈ marks a conversion by molar mass, not a printed value. Calls of active or inactive are those of the source. No cut-off for these calls is given here.
Assays:
Pseudomonas aeruginosa [1] = experiment: Antibacterial activity against Pseudomonas aeruginosa ATCC 27853 assessed as bacterial growth inhibition incubated for 24 hrs by broth microdilution method; type: functional
Calf thymus DNA [2] = experiment: Induction of calf thymus DNA cleavage at 0.05 mmol/L incubated for 6 hrs by agarose gel electrophoresis method; type: nucleic-acid assay; conditions: Bos taurus
Acinetobacter baumannii [3] = experiment: Antibiofilm activity against Acinetobacter baumannii assessed as biofilm eradication at 0.016 mmol/L incubated for 24 hrs by crystal violet staining based analysis relative to control; type: functional
[4] = AUC (0 to t) in Kunming mouse at 10 mg/kg, iv measured upto 24 hrs by LC-MS analysis; type: ADME, organism-based; design: time < 24 hrs, dose 10 mg/kg, route iv; conditions: in vivo
Calf thymus DNA [5] = experiment: Induction of calf thymus DNA cleavage at 0.05 mmol/L incubated for 6 hrs in presence of Cu(NO3)2 by agarose gel electrophoresis method; type: nucleic-acid assay; conditions: Bos taurus
Calf thymus DNA [6] = experiment: Induction of calf thymus DNA cleavage at 0.05 mmol/L incubated for 6 hrs in presence of Zn2+ by agarose gel electrophoresis method; type: nucleic-acid assay; conditions: Bos taurus
[7] = AUC (0 to infinity) in Kunming mouse at 10 mg/kg, iv measured upto 24 hrs by LC-MS analysis; type: ADME, organism-based; design: dose 10 mg/kg, time < 24 hrs, route iv; conditions: in vivo
[8] = Cytotoxicity against human L02 cells assessed as cell viability upto 0.128 mmol/L measured after 24 hrs by MTT assay relative to control; type: toxicity, cell-based; conditions: up to 0.128 mM, read-out: Activity
Acinetobacter baumannii [9] = experiment: Antibiofilm activity against Acinetobacter baumannii assessed as increase in biofilm eradication incubated for 24 hrs by crystal violet staining based analysis; type: functional, organism-based
[10] = Cmax in Kunming mouse at 10 mg/kg, po measured upto 24 hrs by LC-MS analysis; type: ADME, organism-based; design: time < 24 hrs, dose 10 mg/kg, route po; conditions: in vivo
Acinetobacter baumannii [11] = experiment: Antibacterial activity against Acinetobacter baumannii infected in mouse assessed as log reduction in viable bacterial count at 10 mg/kg measured for 12 hrs; type: functional
[12] = AUC (0 to t) in Kunming mouse at 10 mg/kg, po measured upto 24 hrs by LC-MS analysis; type: ADME, organism-based; design: time < 24 hrs, dose 10 mg/kg, route po; conditions: in vivo
Staphylococcus aureus [13] = experiment: Antibacterial activity against Staphylococcus aureus ATCC 25923 assessed as bacterial growth inhibition incubated for 24 hrs by broth microdilution method; type: functional
[14] = Hemolytic activity in human RBC at effective concentration measured after 1 hr by absorbance based assay relative to control; type: toxicity, cell-based, Erythrocyte; conditions: red blood cells (erythrocytes), read-out: Activity
[15] = Tmax in Kunming mouse at 10 mg/kg, po measured upto 24 hrs by LC-MS analysis; type: ADME, organism-based; conditions: in vivo
Calf thymus DNA [16] = experiment: Binding affinity to calf thymus DNA incubated for 5 mins by acridine orange displacement assay; type: nucleic-acid assay; conditions: Bos taurus
[17] = MRT (0 to infinity) in Kunming mouse at 10 mg/kg, iv measured upto 24 hrs by LC-MS analysis; type: ADME, organism-based; conditions: in vivo
[18] = Volume of distribution in Kunming mouse at 10 mg/kg, po measured upto 24 hrs by LC-MS analysis; type: ADME, organism-based; conditions: in vivo
Pseudomonas aeruginosa [19] = experiment: Antibacterial activity against Pseudomonas aeruginosa assessed as bacterial growth inhibition incubated for 24 hrs by broth microdilution method; type: functional
[20] = AUC (0 to infinity) in Kunming mouse at 10 mg/kg, po measured upto 24 hrs by LC-MS analysis; type: ADME, organism-based; design: dose 10 mg/kg, time < 24 hrs, route po; conditions: in vivo
[21] = Hemolytic activity in human RBC assessed as cell viability upto 256 ug/ml measured for 1 to 8 hrs by absorbance based assay relative to control; type: toxicity, Erythrocyte; conditions: red blood cells (erythrocytes), time 1-8 hrs, dose < 256 µg/ml, read-out: Activity
[22] = MRT (0 to infinity) in Kunming mouse at 10 mg/kg, po measured upto 24 hrs by LC-MS analysis; type: ADME, organism-based; conditions: in vivo
Calf thymus DNA [23] = experiment: Binding affinity to calf thymus DNA incubated for 5 mins by DAPI displacement assay; type: nucleic-acid assay; conditions: Bos taurus
[24] = AUMC (0 to t) in Kunming mouse at 10 mg/kg, po measured upto 24 hrs by LC-MS analysis; type: ADME, organism-based; conditions: in vivo
Acinetobacter baumannii [25] = experiment: Antibacterial activity against Acinetobacter baumannii assessed as reduction in metabolic activity incubated for 6 hrs by alamar blue staining based assay; type: functional, organism-based
[26] = Volume of distribution at steady state in Kunming mouse at 10 mg/kg, iv measured upto 24 hrs by LC-MS analysis; type: ADME, organism-based; conditions: in vivo, read-out: Vdss
Erythrocyte = experiment: Hemolytic activity against human RBC assessed as change in cell morphology at 512 times MIC measured after 8 hrs by microscopic analysis; type: toxicity, cell-based
[27] = Cytotoxicity against HEK293T cells assessed as cell viability at 0.256 mmol/L measured after 24 hrs by MTT assay relative to control; type: toxicity, cell-based, HEK-293T; conditions: human, read-out: Activity
[28] = Half life in Kunming mouse at 10 mg/kg, po measured upto 24 hrs by LC-MS analysis; type: ADME, organism-based; conditions: in vivo
[29] = Hemolytic activity in human RBC at 512 times MIC measured after 8 hrs by absorbance based assay relative to control; type: toxicity, cell-based, Erythrocyte; conditions: red blood cells (erythrocytes), read-out: Activity
[30] = Oral bioavailability in Kunming mouse at 10 mg/kg measured upto 24 hrs by LC-MS analysis; type: ADME, organism-based; conditions: in vivo
Acinetobacter baumannii [31] = experiment: Antibacterial activity against Acinetobacter baumannii assessed as decrease in LDH activity incubated for 6 hrs by LDH assay; type: functional, organism-based
[32] = MRT (0 to t) in Kunming mouse at 10 mg/kg, iv measured upto 24 hrs by LC-MS analysis; type: ADME, organism-based; conditions: in vivo
Staphylococcus aureus [33] = experiment: Antibacterial activity against methicillin-resistant Staphylococcus aureus assessed as bacterial growth inhibition incubated for 24 hrs by broth microdilution method; type: functional
Calf thymus DNA [34] = experiment: Induction of calf thymus DNA cleavage at 0.05 mmol/L incubated for 6 hrs in presence of Cu2+ by agarose gel electrophoresis method; type: nucleic-acid assay; conditions: Bos taurus
[35] = Tmax in Kunming mouse at 10 mg/kg, iv measured upto 24 hrs by LC-MS analysis; type: ADME, organism-based; conditions: in vivo
Escherichia coli = experiment: Antibacterial activity against Escherichia coli ATCC 25922 assessed as bacterial growth inhibition incubated for 24 hrs by broth microdilution method; type: functional
[36] = Clearance in Kunming mouse at 10 mg/kg, iv measured upto 24 hrs by LC-MS analysis; type: ADME, organism-based; conditions: in vivo
Acinetobacter baumannii [37] = experiment: Antibacterial activity against Acinetobacter baumannii infected in mouse assessed as log reduction in viable bacterial count at 30 mg/kg measured for 12 hrs; type: functional
[38] = Cmax in Kunming mouse at 10 mg/kg, iv measured upto 24 hrs by LC-MS analysis; type: ADME, organism-based; design: dose 10 mg/kg, time < 24 hrs, route iv; conditions: in vivo
Klebsiella pneumoniae = experiment: Antibacterial activity against Klebsiella pneumoniae assessed as bacterial growth inhibition incubated for 24 hrs by broth microdilution method; type: functional
Calf thymus DNA [39] = experiment: Binding affinity to calf thymus DNA assessed as binding constant, K by absorbance based assay; type: nucleic-acid assay; conditions: Bos taurus
Calf thymus DNA [40] = experiment: Binding affinity to calf thymus DNA incubated overnight in presence of sodium chloride by sodium ion-quenching assay; type: nucleic-acid assay; conditions: Bos taurus
[41] = AUMC (0 to infinity) in Kunming mouse at 10 mg/kg, po measured upto 24 hrs by LC-MS analysis; type: ADME, organism-based; conditions: in vivo
Acinetobacter baumannii [42] = experiment: Antibacterial activity against Acinetobacter baumannii assessed as bacterial growth inhibition incubated for 24 hrs by broth microdilution method; type: functional
[43] = AUMC (0 to t) in Kunming mouse at 10 mg/kg, iv measured upto 24 hrs by LC-MS analysis; type: ADME, organism-based; conditions: in vivo
Enterococcus faecalis = experiment: Antibacterial activity against Enterococcus faecalis assessed as bacterial growth inhibition incubated for 24 hrs by broth microdilution method; type: functional

OCCN(CCO)c1nccc(-n2cncn2)n1
MIC (Pseudomonas aeruginosa [1]): 512 µM (≈ 128 µg/mL)
Activity (Calf thymus DNA [2]): inactive
Activity (Acinetobacter baumannii [3]): 39.1%
AUC(0-t) at 24 h [4]: 2080 ng·h/mL
Activity (Calf thymus DNA [5]): inactive
Activity (Calf thymus DNA [6]): inactive
AUC [7]: 2281 ng·h/mL
viability at 24 h [8]: 85%
Activity (Acinetobacter baumannii [9]): Dose-Dependent Effect
Cmax [10]: 2130 ng/mL
log(activity) (Acinetobacter baumannii [11]): 1.6
AUC(0-t) at 24 h [12]: 7870 ng·h/mL
MIC (Staphylococcus aureus [13]): 128 µM (≈ 32 µg/mL)
hemolysis at 1 h [14]: < 5%
Tmax [15]: 0.58 h
Activity (Calf thymus DNA [16]): inactive
MRT inf [17]: 3.98 h
Vd [18]: 7.89 L/kg
MIC (Pseudomonas aeruginosa [19]): 1 µM (≈ 0.25 µg/mL)
AUC [20]: 8073 ng·h/mL
viability [21]: > 99%
MRT inf [22]: 4.67 h
Activity (Calf thymus DNA [23]): Dose-Dependent Effect
AUMCt [24]: 31290 hr.hr.ng/ml
Activity (Acinetobacter baumannii [25]): Dose-Dependent Effect
Vd [26]: 2.1 L/kg
Activity (Erythrocyte): Non-Toxic
viability at 24 h, 256 µM [27]: 80%
half-life [28]: 4.39 h
hemolysis at 8 h, 512 times MIC [29]: 1.5%
F [30]: 35.41%
Activity (Acinetobacter baumannii [31]): Dose-Dependent Effect
MRT last at 24 h [32]: 2.61 h
MIC (Staphylococcus aureus [33]): 1020 µM (≈ 256 µg/mL)
Activity (Calf thymus DNA [34]): inactive
Tmax [35]: 1.98 min
MIC (Escherichia coli): 1 µM (≈ 0.25 µg/mL)
CL [36]: 8.43 mL/min/kg
log(activity) (Acinetobacter baumannii [37]): 3.5
Cmax [38]: 1990 ng/mL
MIC (Klebsiella pneumoniae): 8 µM (≈ 2 µg/mL)
K (Calf thymus DNA [39]): 1.7 10^3L/mol
Activity (Calf thymus DNA [40]): Active
AUMC [41]: 37723 hr.hr.ng/ml
MIC (Acinetobacter baumannii [42]): 2 µM (≈ 0.501 µg/mL)
AUMCt [43]: 5446 hr.hr.ng/ml
MIC (Enterococcus faecalis): 8 µM (≈ 2 µg/mL)

From ChEMBL document CHEMBL5380831, “Azolylpyrimidinediols as Novel Structural Scaffolds of DNA-Groove Binders against Intractable Acinetobacter baumannii” (J Med Chem, 2023)
